Test results: patent publication US20260167623A1 (NIKANG THERAPEUTICS, INC., priority 2022, published 2026)

Molecular target: T1, CDK2 (Homo sapiens, UniProt P24941)
T1 construct: High-Throughput Measurement of Cellular Endogenous CDK2; endogenous in cells; host or cells: OVCAR3
Assay: Inhibition of CDK2: phospho-Rb (S807/811) HTRF measurement in OVCAR3 cells, 24 h
Assay type: cell-based
Conditions: 24 h compound treatment, read-out: pRB_OVCAR3_24h
Summary of the method: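 IC50 came from a four-parameter fit of DMSO-normalized TR-FRET ratios (665/620 nm) reporting phospho-Rb S807/811. Lysates were taken from OVCAR3 cultures treated 24 h with compound (0.3 to 10,000 nM) and incubated 4 h at room temperature with the antibody pair.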

Row | SMILES | IC50
1 | Cn1nc(N2CCC(=O)NC2=O)c2ccc(C3CN(CC4CCN(c5cccc(S(=O)(=O)N6CCC(Nc7ncc(C(F)(F)F)cn7)CC6)c5)CC4)C3)cc21 [Example 118, 1-(1-methyl-6-(1-((1-(3-((4-((5-(trifluoro-methyl)pyrimidin-2-yl)amino)piperidin-1-yl)sulfonyl)phenyl)piperidin-4-yl)methyl)-azetidin-3-yl)-1H-indazol-3-yl)dihydropyrimidine-2,4(1H,3H)-dione] | 1 to 100 nM
2 | Cn1nc(N2CCC(=O)NC2=O)c2ccc(C3CCN(Cc4ccnc(S(=O)(=O)N5CCC(Nc6ncc(C(F)(F)F)cn6)CC5)c4)CC3)cc21 [Example 183, 1-(1-methyl-6-(1-((2-((4-((5-(trifluoromethyl)pyrimidin-2-yl)amino)piperidin-1-yl)sulfonyl)pyridin-4-yl)methyl)piperidin-4-yl)-1H-indazol-3-yl)dihydropyrimidine-2,4(1H,3H)-dione] | 500 to 2500 nM
3 | Cn1nc(N2CCC(=O)NC2=O)c2ccc(C3CCN(Cc4cccc(S(=O)(=O)[C@H]5CC[C@H](Nc6ncc(C(F)(F)F)cn6)CC5)c4)CC3)cc21 [Example 10, 1-(1-methyl-6-(1-(3-(((1r,4r)-4-((5-(trifluoromethyl)pyrimidin-2-yl)amino)-cyclohexyl)sulfonyl)benzyl)piperidin-4-yl)-1H-indazol-3-yl)dihydropyrimidine-2,4(1H,3H)-dione] | 500 to 2500 nM
4 | O=C1CCC(Nc2ccc(N3CCN(CC4CCN(c5cccc(S(=O)(=O)N6CCC(Nc7ncc(C(F)(F)F)cn7)CC6)c5)CC4)CC3)cc2)C(=O)N1 (stereo not drawn) [Example 133, 3-((4-(4-((1-(3-((4-((5-(trifluoromethyl)-pyrimidin-2-yl)amino)piperidin-1-yl)sulfonyl)phenyl)piperidin-4-yl)methyl)piperazin-1-yl)phenyl)amino)-piperidine-2,6-dione] | 100 to 500 nM
5 | Cn1nc(N2CCC(=O)NC2=O)c2ccc(C3CN(Cc4cccc(S(=O)(=O)N5CCC(Nc6ncc(C(F)(F)F)cn6)CC5)c4)C3)cc21 [Example 49, 1-(1-methyl-6-(1-(3-((4-((5-(trifluoro-methyl)pyrimidin-2-yl)amino)piperidin-1-yl)sulfonyl)benzyl)azetidin-3-yl)-1H-indazol-3-yl)dihydropyrimidine-2,4(1H,3H)-dione] | 500 to 2500 nM
6 | Cc1ncsc1-c1ccc([C@H](C)NC(=O)[C@@H]2C[C@@H](O)CN2C(=O)[C@@H](NC(=O)CC2CCN(Cc3cccc(S(=O)(=O)N4CCC(Nc5ncc(C(F)(F)F)cn5)CC4)c3)CC2)C(C)(C)C)cc1 [Example 9, (2S,4R)-1-((S)-3,3-dimethyl-2-(2-(1-(3-((4-((5-(trifluoromethyl)pyrimidin-2-yl)amino)piperidin-1-yl)sulfonyl)-benzyl)piperidin-4-yl)acetamido)butanoyl)-4-hydroxy-N-((S)-1-(4-(4-methylthiazol-5-yl)phenyl)ethyl)pyrrolidine-2-carboxamide] | 100 to 500 nM
7 | Cn1nc(N2CCC(=O)NC2=O)c2ccc(N3CC4CC(C3)N4CC3CCN(c4cccc(S(=O)(=O)N5CCC(Nc6ncc(Cl)cn6)CC5)c4)CC3)cc21 [Example 125, 1-(6-(6-((1-(3-((4-((5-chloropyrimidin-2-yl)amino)piperidin-1-yl)sulfonyl)phenyl)-piperidin-4-yl)methyl)-3,6-diazabicyclo-[3.1.1]heptan-3-yl)-1-methyl-1H-indazol-3-yl)dihydropyrimidine-2,4(1H,3H)-dione] | 500 to 2500 nM
8 | CCOC(=O)C1(CN2CCC(c3ccc4c(N5CCC(=O)NC5=O)nn(C)c4c3)CC2)CCN(c2cccc(S(=O)(=O)N3CCC(Nc4ncc(Cl)cn4)CC3)c2)CC1 [Example 141, ethyl 1-(3-((4-((5-chloropyrimidin-2-yl)amino)piperidin-1-yl)sulfonyl)phenyl)-4-((4-(3-(2,4-dioxotetrahydropyrimidin-1(2H)-yl)-1-methyl-1H-indazol-6-yl)piperidin-1-yl)methyl)piperidine-4-carboxylate] | 500 to 2500 nM
9 | Cn1nc(N2CCC(=O)NC2=O)c2ccc(C3CCN(Cc4cc(S(=O)(=O)N5CCC(Nc6ncc(OC(F)F)cn6)CC5)ccc4C#N)CC3)cc21 [Example 169, 4-((4-((5-(difluoromethoxy)pyrimidin-2-yl)amino)piperidin-1-yl)sulfonyl)-2-((4-(3-(2,4-dioxotetrahydropyrimidin-1(2H)-yl)-1-methyl-1H-indazol-6-yl)piperidin-1-yl)methyl)benzonitrile] | 100 to 500 nM
10 | Cn1nc(N2CCC(=O)NC2=O)c2ccc(C3CCN(CC4CCN(c5ccc(C#N)c(S(=O)(=O)N6CCC(Nc7ncc(Cl)cn7)CC6)c5)CC4)CC3)cc21 [Example 161, 2-((4-((5-chloropyrimidin-2-yl)amino)piperidin-1-yl)sulfonyl)-4-(4-((4-(3-(2,4-dioxotetrahydropyrimidin-1(2H)-yl)-1-methyl-1H-indazol-6-yl)piperidin-1-yl)methyl)piperidin-1-yl)benzonitrile] | > 2500 nM
11 | Cn1nc(N2CCC(=O)NC2=O)c2ccc(N3CC4(CN(Cc5cccc(S(=O)(=O)N6CCC(Nc7ncc(C(F)(F)F)cn7)CC6)c5)C4)C3)cc21 [Example 4, 1-(1-methyl-6-(6-(3-((4-((5-(trifluoromethyl)pyrimidin-2-yl)amino)piperidin-1-yl)sulfonyl)benzyl)-2,6-diazaspiro[3.3]heptan-2-yl)-1H-indazol-3-yl)dihydropyrimidine-2,4(1H,3H)-dione] | 100 to 500 nM
12 | Cn1nc(N2CCC(=O)NC2=O)c2ccc(N3CCC(CN4C5CCC4CN(c4cccc(S(=O)(=O)N6CCC(Nc7ncc(Cl)cn7)CC6)c4)C5)CC3)cc21 [Example 166, 1-(6-(4-((3-(3-((4-((5-chloropyrimidin-2-yl)amino)piperidin-1-yl)sulfonyl)phenyl)-3,8-diazabicyclo[3.2.1]octan-8-yl)methyl)piperidin-1-yl)-1-methyl-1H-indazol-3-yl)dihydropyrimidine-2,4(1H,3H)-dione] | > 2500 nM
13 | Cn1nc(N2CCC(=O)NC2=O)c2cccc(C3CCN(CC4CCN(c5cccc(S(=O)(=O)N6CCC(Nc7ncc(C(F)(F)F)cn7)CC6)c5)CC4)CC3)c21 [Example 145, 1-(1-methyl-7-(1-((1-(3-((4-((5-(trifluoro-methyl)pyrimidin-2-yl)amino)piperidin-1-yl)sulfonyl)phenyl)piperidin-4-yl)methyl)-piperidin-4-yl)-1H-indazol-3-yl)dihydropyrimidine-2,4(1H,3H)-dione] | 100 to 500 nM
14 | CC(Cc1cccc(S(=O)(=O)N2CCC(Nc3ncc(OC(F)F)cn3)CC2)c1)CN1CCN(c2cc3c(cc2F)C(=O)N(C2CCC(=O)NC2=O)C3)CC1 (stereo not drawn) [Example 102, 3-(5-(4-(3-(3-((4-((5-(difluoromethoxy)-pyrimidin-2-yl)amino)piperidin-1-yl)sulfonyl)phenyl)-2-methylpropyl)-piperazin-1-yl)-6-fluoro-1-oxoisoindolin-2-yl)piperidine-2,6-dione] | 500 to 2500 nM

The remaining lines, values ahead:

Row | IC50 | SMILES
15 | 500 to 2500 nM | Cn1nc(N2CCC(=O)NC2=O)c2ncc(C3CCN(CC4CCN(c5cccc(S(=O)(=O)N6CCC(Nc7ncc(Cl)cn7)CC6)c5)CC4)CC3)cc21 [Example 215]
16 | 1 to 100 nM | O=C1CCC(n2c(=O)n(CC3CCN(CC4CCN(c5cccc(S(=O)(=O)N6CCC(Nc7ncc(C(F)(F)F)cn7)CC6)c5)CC4)CC3)c3ccccc32)C(=O)N1 (stereo not drawn) [Example 186, 3-(2-oxo-3-((1-((1-(3-((4-((5-(trifluoromethyl)pyrimidin-2-yl)amino)piperidin-1-yl)sulfonyl)phenyl)piperidin-4-yl)methyl)piperidin-4-yl)methyl)-2,3-dihydro-1H-benzo[d]imidazol-1-yl)piperidine-2,6-dione]
17 | > 2500 nM | CC(C)Oc1cnc(NC2CCN(S(=O)(=O)c3cccc(N4CCC(CN5CCC(c6ccc7c(N8CCC(=O)NC8=O)nn(C)c7c6)CC5)CC4)c3)CC2)nc1 [Example 253, 1-(6-(1-((1-(3-((4-((5-isopropoxypyrimidin-2-yl)amino)piperidin-1-yl)sulfonyl)phenyl)piperidin-4-yl)methyl)piperidin-4-yl)-1-methyl-1H-indazol-3-yl)dihydropyrimidine-2,4(1H,3H)-dione]
18 | 100 to 500 nM | Cn1nc(N2CCC(=O)NC2=O)c2ccc(C3CCN(CC4CCN(c5cccc(S(=O)(=O)N6CCC(Nc7ncc(Cl)cn7)CC6)c5F)CC4)CC3)cc21 [Example 187, 1-(6-(1-((1-(3-((4-((5-chloropyrimidin-2-yl)amino)piperidin-1-yl)sulfonyl)-2-fluorophenyl)piperidin-4-yl)methyl)piperidin-4-yl)-1-methyl-1H-indazol-3-yl)dihydropyrimidine-2,4(1H,3H)-dione]
19 | 500 to 2500 nM | Cn1nc(N2CCC(=O)NC2=O)c2ccc(C3CCN(C[C@@H]4CCCN4c4cccc(S(=O)(=O)N5CCC(Nc6ncc(OC(F)F)cn6)CC5)c4)CC3)cc21 [Example 259, (S)-1-(6-(1-((1-(3-((4-((5-(difluoromethoxy)pyrimidin-2-yl)amino)piperidin-1-yl)sulfonyl)phenyl)pyrrolidin-2-yl)methyl)piperidin-4-yl)-1-methyl-1H-indazol-3-yl)dihydropyrimidine-2,4(1H,3H)-dione]
20 | 100 to 500 nM | Cn1nc(N2CCC(=O)NC2=O)c2ccc(C3CCN(Cc4ccc(C#Cc5cccc(S(=O)(=O)N6CCC(Nc7ncc(C(F)(F)F)cn7)CC6)c5)cc4)CC3)cc21 [Example 232, 1-(1-methyl-6-(1-(4-((3-((4-((5-(trifluoromethyl)pyrimidin-2-yl)amino)piperidin-1-yl)sulfonyl)phenyl)ethynyl)benzyl)piperidin-4-yl)-1H-indazol-3-yl)dihydropyrimidine-2,4(1H,3H)-dione]
21 | 100 to 500 nM | N#Cc1ccc(S(=O)(=O)N2CCC(Nc3ncc(Cl)cn3)CC2)cc1N1CCC(CN2CCN(c3ccc4c(c3)CN(C3CCC(=O)NC3=O)C4=O)CC2)CC1 (stereo not drawn) [Example 200, 4-((4-((5-chloropyrimidin-2-yl)amino)piperidin-1-yl)sulfonyl)-2-(4-((4-(2-(2,6-dioxopiperidin-3-yl)-1-oxoisoindolin-5-yl)piperazin-1-yl)methyl)piperidin-1-yl)benzonitrile]
